Measurements reported in publication PMC4830539, “Chemical Inhibition of Histone Deacetylases 1 and 2 Induces Fetal Hemoglobin through Activation of GATA2” (PLoS ONE, 2016).

Tests used:
[1] = target: HDAC3 (Homo sapiens, UniProt O15379); assay: In vitro biochemical HDAC enzyme assay
Method: (§1) In vitro biochemical assays were performed as described previously. Specifically, drugs were dissolved and diluted in assay buffer (50 mM HEPES, pH 7.4, 100 mM KCl, 0.001% Tween-20, 0.05% BSA, and 20 μM Tris (2-carboxyethyl)phosphine) to 6-fold the final concentration. HDAC enzymes (BPS Biosciences) were diluted to 1.5-fold of the final concentration in assay buffer and pre-incubated with ACY-957 for 24 hours before the addition of the substrate. The amount of substrate (acetyl-lysine tripeptide substrate for HDAC1, HDAC2, HDAC3, and HDAC6 or trifluoroacetyl-lysine tripeptide for HDAC4, HDAC5, HDAC7, HDAC8, and HDAC9) used for each enzyme was equal to the Michaelis constant (Km), as determined by a titration curve. Substrate was diluted in assay buffer to 6-fold the final concentration with 0.3 μM sequencing grade trypsin (Sigma-Aldrich). The substrate/trypsin mix was added to the enzyme/compound mix and the plate was shaken for 5 seconds and then placed into a SpectraMax M5 microtiter plate reader (Molecular Devices). The enzymatic reaction was monitored over 30 minutes for release of […] after deacetylation of the lysine side chain in the peptide substrate, and the linear rate of the reaction was calculated.
(§2) ACY-957 was tested against each individual HDAC in an in vitro biochemical assay as previously described. Aminobenzamides have slow association rate constants, therefore a prolonged pre-incubation time of 24 hours is required to reach equilibrium.

[2] = tested on: T1, HDAC4; assay: In vitro biochemical HDAC enzyme assay; details: at concentrations as high as 20 μM
T1 construct: purchased BPS Biosciences
Method: as §1, §2

[3] = tested on: T2, HDAC5; assay: In vitro biochemical HDAC enzyme assay; details: at concentrations as high as 20 μM
T2 construct: purchased BPS Biosciences
Method: as §1, §2

[4] = tested on: T3, HDAC6; assay: In vitro biochemical HDAC enzyme assay; details: at concentrations as high as 20 μM
T3 construct: purchased BPS Biosciences
Method: as §1, §2

[5] = tested on: T4, HDAC7; assay: In vitro biochemical HDAC enzyme assay; details: at concentrations as high as 20 μM
T4 construct: purchased BPS Biosciences
Method: as §1, §2

[6] = tested on: HBG mRNA; assay: HBG mRNA (%) by QPCR in differentiating BM cells (CS1, CS2); type: cell-based, human
Method: CD34+ cells isolated from human bone marrow of healthy normal donors (Lonza, AllCells, or StemCell Technologies), referred to as BM cells throughout this work, were cultured using two distinct 2-phase culture systems. These systems have been described previously and are referred to as Culture System 1 (CS1) and Culture System 2 (CS2) throughout this work. CS1 expansion media is StemSpan SFEM (StemCell Technologies) supplemented with CC100 (StemCell Technologies), 100 U/mL penicillin and 100 μg/mL streptomycin. CC100 is a mix of Flt-3 ligand (FLT3LG), KIT ligand (KITLG), interleukin-3 (IL3), and interleukin-6 (IL6). CS1 differentiation media is StemSpan SFEM supplemented with 1 U/ml erythropoietin (EPO), 5 ng/mL IL3, 20 ng/mL KITLG, 2 μM dexamethasone, 1 μM beta-estradiol, 100 U/mL penicillin and 100 μg/mL streptomycin. CS2 expansion media is StemSpan SFEM supplemented with 1% glutamine, 40 μg/mL lipids (Sigma), 100 ng/mL KITLG, 10 ng/mL IL3, and 0.5 U/mL EPO. CS2 differentiation media is same as CS2 expansion media, except 3 U/mL EPO.
(§3) Globin mRNA was detected using quantitative real time PCR (QPCR). Total RNA was isolated using RNeasy Micro Kit (Qiagen) with on-column DNase digestion, converted into cDNA using the High Capacity RNA-to-cDNA Kit (Life Technologies), diluted 5-fold with water, and 1 μL used as a template for QPCR. The percent of each β-like globin transcript was determined using the absolute standard curve method. Briefly, DNA corresponding to the full length transcript for each globin isoform was cloned into […] plasmid (GenScript, Piscataway NJ). Each plasmid was validated against each QPCR probe to ensure specificity. Plasmids were pooled at equal molar concentration and a dilution series spanning 8-logs was utilized as the standard curve. Throughout this work, ‘HBG mRNA (%)’ and ‘percent HBG mRNA’ refers to the abundance of HBG mRNA expressed relative to the sum of the abundances of all β-like globin transcripts, i.e. [HBG/(HBB+HBD+HBG+HBE)]*100. In cases where the transcript of interest was compared against the housekeeping gene ACTB, the comparative Ct ([…]) method was utilized. Probes used for QPCR: HBB (Hs00747223_g1), HBD (Hs00426283_m1), HBG (Hs00361131_g1, detects both HBG1 and HBG2), HBE (Hs00362215_g1), GATA1 (Hs01085823_m1), GATA2 (Hs00231119_m1), KLF1 (Hs00610592_m1), MYB (Hs00920556_m1), SOX6 (Hs00264525_m1), BCL11A (Hs01093197_m1), and ACTB (Hs99999903_m1).
To evaluate the ability of ACY-957 to activate HBG, we utilized two distinct 2-phase culture systems, referred to as CS1 [24] and CS2 [21], to derive erythroid progenitors and erythroblasts from CD34+ human bone marrow cells (BM cells). […]

[7] = tested on: GATA2, GATA1, KLF1 mRNA; assay: Gene expression of candidate HBG modulators by QPCR in CS1; type: cell-based, human; details: CS1, 1 μM
Method: as §3, with “(Hs99999903_m1). […]” for “(Hs99999903_m1).”

[8] = design: method as in earlier work; details: mouse; cited from earlier work

Sequence of HDAC3 (O15379 whole entry): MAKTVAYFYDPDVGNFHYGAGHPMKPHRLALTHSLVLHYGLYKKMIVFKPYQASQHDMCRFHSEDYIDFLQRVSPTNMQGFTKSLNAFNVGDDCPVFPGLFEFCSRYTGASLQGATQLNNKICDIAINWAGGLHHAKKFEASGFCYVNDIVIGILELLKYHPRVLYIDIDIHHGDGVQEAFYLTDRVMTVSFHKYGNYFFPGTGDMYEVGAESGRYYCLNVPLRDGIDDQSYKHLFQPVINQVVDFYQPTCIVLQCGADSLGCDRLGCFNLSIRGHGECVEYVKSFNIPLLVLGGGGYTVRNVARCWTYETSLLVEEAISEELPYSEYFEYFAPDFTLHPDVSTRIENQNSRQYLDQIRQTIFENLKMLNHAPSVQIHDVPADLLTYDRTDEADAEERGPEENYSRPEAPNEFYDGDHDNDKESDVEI
Sequence of HDAC3 (Q9Y618 395-489 partner limits assumed): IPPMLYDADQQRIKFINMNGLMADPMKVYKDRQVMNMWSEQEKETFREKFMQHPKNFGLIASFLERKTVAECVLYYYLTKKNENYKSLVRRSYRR

SMILES: Nc1ccc(-c2cccs2)cc1NC(=O)c1ccc2nc(N3CCNCC3)ccc2c1 [ACY-957]
- IC50 ([1]; 24 hours pre-incubation, mean, n = 4): 1300 nM
- selectivity for HDAC1/2 over HDAC3 ([1]; biochemical assay): approximately 100 fold
- inhibition of HDAC4 [2]: no inhibition
- inhibition of HDAC5 [3]: no inhibition
- inhibition of HDAC6 [4]: no inhibition
- inhibition of HDAC7 [5]: no inhibition
- HBG mRNA (%) ([6]; CS1, day 5, 1 μM): 35%
- each β-like globin mRNA relative to ACTB ([6]; CS1 and CS2, 1 μM): significantly increased levels of HBE and HBG mRNA and decreased levels of HBD and HBB mRNA
- increase of HBG level over vehicle treated controls ([6]; CS1 and CS2, day 5, 1 μM): approximately 3.5 fold
- HBG mRNA (%) ([6]; CS2, day 5, 1 μM): 24%
- GATA1 and KLF1 mRNA ([7]; 4 days): unaffected
- GATA2 mRNA increase relative to control cells ([7]; day 4): 3.3 fold
- pharmacokinetic properties [8]: favorable
